According to ChEMBL document CHEMBL1141099, “Discovery of N-(2,6-dimethylphenyl)-substituted semicarbazones as anticonvulsants: hybrid pharmacophore-based design” (2005):

What was measured:
[1] = molecular target: 4-aminobutyrate aminotransferase, mitochondrial (Rattus norvegicus) (UniProt P50554); assay: In vitro percentage inhibition activity against GABA-T enzyme at a concentration of 1.25 uM after 3 h
[2] = molecular target: 4-aminobutyrate aminotransferase, mitochondrial (Rattus norvegicus) (UniProt P50554); assay: In vitro percentage inhibition activity against GABA-T enzyme at a concentration of 1.25 uM after 6 h
[3] = molecular target: 4-aminobutyrate aminotransferase, mitochondrial (Rattus norvegicus) (UniProt P50554); assay: In vitro percentage inhibition activity against GABA-T enzyme at a concentration of 1.25 uM after 4.5 h
[4] = test system: Rattus norvegicus; assay: Number of rats protected at a dose of 30 mg/Kg when given oral at 1 hr upon maximal electroshock seizure; Total number of rats = 4; type: functional
[5] = test system: Rattus norvegicus; assay: Number of rats protected at a dose of 30 mg/Kg when given oral at 2 hr upon maximal electroshock seizure; Total number of rats = 4; type: functional
[6] = test system: Rattus norvegicus; assay: Number of rats protected at a dose of 30 mg/Kg when given oral at 4 hr upon maximal electroshock seizure; Total number of rats = 4; type: functional
[7] = test system: Rattus norvegicus; assay: Number of rats protected at a dose of 30 mg/Kg when given oral at 0.5 hr upon maximal electroshock seizure; Total number of rats = 4; type: functional
[8] = test system: Rattus norvegicus; assay: Number of rats protected at a dose of 30 mg/Kg when given oral at 0.25 hr upon maximal electroshock seizure; Total number of rats = 4; type: functional
[9] = test system: Rattus norvegicus; assay: Effect on GABA level in rat whole brain concentration after 2 hr post-treatment at a dose of 100 mg/Kg when given i.p.; Control 48.4; type: functional
[10] = test system: Rattus norvegicus; assay: Effect on GABA level in rat whole brain concentration after 7 days post-treatment at a dose of 30 mg/Kg when given orally; Control 50.5; type: functional
[11] = test system: Rattus norvegicus; assay: Enzymatic activity to assess the increase in level of SGOT at a dose of 30 mg/Kg for 14 days when given p.o., in 6 rats; Control 73.1; type: functional
[12] = test system: Rattus norvegicus; assay: Enzymatic activity to assess the increase in level of SGPT at a dose of 30 mg/Kg for 14 days when given p.o., in 6 rats; Control 45.0; type: functional
[13] = test system: Rattus norvegicus; assay: After discharge duration time when before administered in rat 1 at dose 130 mg/Kg when given i.p., upon preliminary hippocampal-kindling screen; Prodrug time 26-39 s; type: functional, Hippocampus
[14] = test system: Rattus norvegicus; assay: Toxic dose observed for anticonvulsant activity when given orally at 4 h in rat upon neurotoxicity seizure; type: functional; conditions: po
[15] = species: Rattus norvegicus; assay: Ex vitro percentage inhibition activity against GABA-T enzyme at a concentration of 2.5 uM after 4.5 h; type: functional
[16] = species: Rattus norvegicus; assay: Protective index between effective dose and toxic dose in rat; type: functional
[17] = test system: Rattus norvegicus; assay: After discharge duration time when after administered in rat 1 at dose 130 mg/Kg when given i.p., upon preliminary hippocampal-kindling screen; type: functional, Hippocampus
[18] = test system: Rattus norvegicus; assay: After discharge duration time when after administered in rat 2 at dose 130 mg/Kg when given i.p., upon preliminary hippocampal-kindling screen; type: functional, Hippocampus
[19] = test system: Rattus norvegicus; assay: After discharge duration time when before administered in rat 2 at dose 130 mg/Kg when given i.p., upon preliminary hippocampal-kindling screen; Prodrug time 30-39 s; type: functional, Hippocampus
[20] = test system: Mus musculus; assay: Minimum dose required for anticonvulsant activity when given i.p., at 4 hr in mice upon maximal electroshock seizure; type: functional
[21] = test system: Mus musculus; assay: Minimum dose required for anticonvulsant activity when given i.p., at 0.5 hr in mice upon maximal electroshock seizure; type: functional
[22] = test system: Rattus norvegicus; assay: Seizure score after administration in rat 1 at dose 130 mg/Kg when given i.p., upon preliminary hippocampal-kindling screen; type: functional, Hippocampus
[23] = test system: Rattus norvegicus; assay: Seizure score after administration in rat 2 at dose 130 mg/Kg when given i.p., upon preliminary hippocampal-kindling screen; type: functional, Hippocampus
[24] = test system: Rattus norvegicus; assay: Seizure score before administration in rat 1 at dose 130 mg/Kg when given i.p., upon preliminary hippocampal-kindling screen; type: functional, Hippocampus
[25] = test system: Rattus norvegicus; assay: Seizure score before administration in rat 2 at dose 130 mg/Kg when given i.p., upon preliminary hippocampal-kindling screen; type: functional, Hippocampus
[26] = test system: Rattus norvegicus; assay: Effective dose required for anticonvulsant activity when given orally at 4 h in rat upon maximal electroshock seizure; type: functional; conditions: po
[27] = species: Rattus norvegicus; assay: Ex vitro percentage inhibition activity against GABA-T enzyme at a concentration of 2.5 uM after 3 h; type: functional
[28] = species: Rattus norvegicus; assay: Ex vitro percentage inhibition activity against GABA-T enzyme at a concentration of 2.5 uM after 6 h; type: functional
[29] = test system: Mus musculus; assay: Minimum dose required for anticonvulsant activity when given i.p., at 0.5 hr in mice upon subcutaneous pentylenetetrazole seizure; type: functional
[30] = test system: Mus musculus; assay: Minimum dose required for anticonvulsant activity when given i.p., at 2 hr in mice upon subcutaneous strychnine seizure; type: functional
[31] = test system: Mus musculus; assay: Minimum dose required for anticonvulsant activity when given i.p., at 0.5 hr in mice upon subcutaneous strychnine seizure; type: functional
[32] = test system: Mus musculus; assay: Post treatment activity score for CNS study using a actophotometer at a dose of 100 mg/Kg after 1 hr when given i.p., in mice (No. of animals 6); Control (24h before) 217
[33] = test system: Mus musculus; assay: Post treatment activity score for CNS study using a actophotometer at a dose of 100 mg/Kg after 0.5 hr when given i.p., in mice (No. of animals 6); Control (24h before) 217
[34] = test system: Mus musculus; assay: Post treatment immobility time for CNS study using Porsolt's swimpool test at a dose of 100 mg/Kg after 1 h when given i.p., in mice (No. of animals 6); Control (24h before) 190

Chain of 4-aminobutyrate aminotransferase, mitochondrial (Rattus norvegicus) (P50554 28-500 limits assumed): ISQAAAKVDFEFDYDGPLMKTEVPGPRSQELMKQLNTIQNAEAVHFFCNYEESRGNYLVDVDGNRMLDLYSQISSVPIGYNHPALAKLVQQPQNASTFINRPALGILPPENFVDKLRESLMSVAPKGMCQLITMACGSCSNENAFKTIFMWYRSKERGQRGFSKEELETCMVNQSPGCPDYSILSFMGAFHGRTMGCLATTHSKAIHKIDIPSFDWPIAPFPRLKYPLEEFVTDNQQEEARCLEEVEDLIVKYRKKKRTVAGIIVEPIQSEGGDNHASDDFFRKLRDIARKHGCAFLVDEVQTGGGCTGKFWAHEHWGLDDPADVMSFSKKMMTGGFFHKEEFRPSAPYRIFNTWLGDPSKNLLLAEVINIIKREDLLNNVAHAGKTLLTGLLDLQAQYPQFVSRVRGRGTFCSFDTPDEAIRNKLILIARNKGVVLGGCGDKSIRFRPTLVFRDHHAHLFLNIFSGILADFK

Cc1cccc(C)c1NC(=O)N/N=C/c1ccccc1O
inhibition [1]: 58% | inhibition [2]: 9% | inhibition [3]: 0% | Activity [4]: 3 | Activity [5]: 4 | Activity [6]: 4 | Activity [7]: 3 | Activity [8]: 1 | Activity [9]: 92.1 ug/100mg of tissue | Activity [10]: 110 ug/100mg of tissue | SGOT activity [11]: 64.8 units/mL | SGPT activity [12]: 43.3 units/mL | ADD [13]: 39 s | TD50 [14]: > 500 mg/kg | Inhibition [15]: 43% | PI [16]: >25.1 | ADD [17]: 59 s | ADD [18]: 25 s | ADD [19]: 39 s | MES [20]: 300 mg/kg | MES [21]: 100 mg/kg | Score [22]: 1 | Score [23]: 1 | Score [24]: 5 | Score [25]: 5 | ED50 [26]: 19.8 mg/kg | Inhibition [27]: 90% | Inhibition [28]: 0% | PTZ seizure [29]: 300 mg/kg | STY seizure [30]: 100 mg/kg | STY seizure [31]: 30 mg/kg | Activity [32]: 135 | Activity [33]: 155 | Activity [34]: 191
